≈ marks a conversion by molar mass, not a printed value.
Conditions: buffer; pH 7.4; 200.0 µM

| solubility kinetic [µg/mL] | Compound |
| --- | --- |
| < 0.7 | COc1ccc(OC)c(N/C=C/C(=O)c2ccc(OC)c(OC)c2)c1 |
| > 45.2 | CSc1ccccc1C(=O)NCCOc1ccccc1C |
| 30.6 | Cl.N=C1CCCN1c1ccccc1O |
| > 41.3 | COc1ccc(/C=C2\N=C(C)OC2=O)cc1OC(C)=O |
| 24.9 (≈ 71.5 µM) | O=C(COc1ccc(C(=O)c2ccccc2)cc1)Nc1ncccc1O |
| > 27.6 | Cl.NCCc1cnc[nH]1 |
| 50.8 (≈ 148 µM) | CN1CCCN(C(=O)CNC(=O)c2ccc(Cl)cc2Cl)CC1 |
| > 34.8 | COc1ccc(C(O)Cc2nccn2C)cc1 (stereo not given) |
| > 50.6 | CN(C)CCCNc1nc(N)c([N+](=O)[O-])c(NC2CCCCC2)n1 |
| > 45.6 | O=C(NCCCO)/C(=C\c1ccco1)NC(=O)c1ccco1 |
| 0.5 (≈ 1.44 µM) | COc1ccc(Cl)cc1C(=O)Nc1ccc(NC(=O)C(C)C)cc1 |
| > 36.3 | Cc1ccc(C(=O)O)cc1NCc1ccncc1 |
| 3.3 (≈ 11 µM) | CCOc1ccc(C2NC(=O)c3ccccc3O2)cc1OC (stereo not given) |
| 49.5 (≈ 136 µM) | CS(=O)(=O)N(CC(=O)O)c1ccc(C23CC4CC(CC(C4)C2)C3)cc1 |
| > 53.1 | COc1cc(Cl)c(C)cc1NC(=O)CCN1C(=O)NC(C)(C)C1=O |
| 51.6 (≈ 147 µM) | Cc1csc(SCC(=O)Nc2cc(C(N)=O)cc(C(N)=O)c2)n1 |
| > 52 | COc1ccc(Cl)cc1NC(=O)C1CCN(S(C)(=O)=O)CC1 |
| 0.3 (≈ 0.954 µM) | CCc1cc2ccccc2nc1SCC(=O)NC1CCCC1 |
| 2.5 (≈ 6.7 µM) | O=C(CNC(=O)c1ccc(Br)cc1)Nc1ccc2c(c1)CCC2 |
| > 38.4 | N#C/C(=C\c1cccc(O)c1)C(=O)N1CCCCC1 |
| 2.9 (≈ 7.06 µM) | COc1ccc(C(=O)Nc2ccc(Cl)c(S(=O)(=O)N3CCOCC3)c2)cc1 |
| 0.3 (≈ 1.01 µM) | COc1ccc(NC(=O)/C(C#N)=C/c2ccc[nH]2)c(OC)c1 |
| 2.1 (≈ 7.32 µM) | C#CCn1cc(Cl)cc(C(=O)Nc2ccccc2)c1=O |
| > 49.1 | CCC1(C)Cc2ccccc2-c2nc(NCCCO)n(C)c(=O)c21 (stereo not given) |
| 45.4 (≈ 139 µM) | Cc1cccc(OCC(=O)NCCCNC(=O)c2ccccn2)c1 |
| 39.9 (≈ 143 µM) | O=C(Cc1ccccc1)Nc1ccc2oc(=O)ccc2c1 |
| > 42.6 | O=C(O)c1ccccc1CSc1nc2ccccc2[nH]1 |
| > 44.1 | N#CC1(NC(=O)COC(=O)C2=COCCO2)CCCCC1 |
| 17.2 (≈ 47.4 µM) | Cc1nc(-c2cccc(NC(=O)c3ccc(Br)o3)c2)cs1 |
| > 43.1 | Cc1c(CCC(=O)NC2CC2)c(=O)oc2cc(O)ccc12 |

Continued, molecule first:

| Compound | solubility kinetic [µg/mL] |
| --- | --- |
| CCCCN(CC)S(=O)(=O)c1ccc2c(c1)n(C)c(=O)c(=O)n2C | 2.8 (≈ 7.92 µM) |
| Nc1ccccc1SC1CC(=O)N(c2ccc3c(c2)OCO3)C1=O (stereo not given) | < 0.4 |
| CCO/C=C1/C(=O)N(c2ccccc2OC)C(=O)c2ccccc21 | > 48.5 |
| COC(=O)c1ccc(NC(=O)CNc2ccccc2)cc1 | 28.3 (≈ 99.5 µM) |
| Cc1cccc(C)c1NC(=S)NCc1ccccc1 | > 40.6 |
| CNC(=O)Cn1ncc2c3ccccc3n(C)c2c1=O | > 40.5 |
| Cc1ccnc2c1ccc1ccccc12 | < 0.4 |
| Cc1cc(C)c(NC(=O)C2CCCO2)c(C)c1NC(=O)C1CCCO1 (stereo not given) | > 52 |
| O=C(O)c1ccc(/C=N/O)cc1 | > 24.8 |
| O=C(NC1CCCc2ccccc21)c1c(F)cccc1Cl (stereo not given) | 8.3 (≈ 27.3 µM) |
| CCN(Cc1cc(=O)oc2cc(C)ccc12)c1ccccc1 | 2 (≈ 6.82 µM) |
| Cc1csc(SCC(=O)NC(=O)NCCC(C)C)n1 | 22.6 (≈ 75 µM) |
| Cc1c(-c2ccncc2)oc2ccc(Br)cc2c1=O | < 0.7 |
| CN1CCN(c2ccccc2NC(=O)c2c(F)cccc2F)CC1 | > 49.7 |
| O=C(NC(=S)Nc1ccccc1Br)C1CCCCC1 | 2.2 (≈ 6.45 µM) |
| Cn1cnc(Sc2ncnc3nc[nH]c23)c1[N+](=O)[O-] | 29.7 (≈ 107 µM) |
| COc1ccc(-n2c(=S)[nH]c3sc4c(c3c2=O)CCN(C)C4)cc1 | > 53.9 |
| c1ccc(CN2CCOCCOCCOCC2)cc1 | > 39.8 |
| N#C/C(=C\c1ccc(OCC(N)=O)cc1)C(=O)NC1CC1 | > 42.8 |
| CS(=O)(=O)Nc1ccc2c(c1)OCC(=O)N2Cc1ccccc1 | 42.4 (≈ 128 µM) |
| O=C(O)CC(Cc1ccc(Cl)cc1)C(=O)Nc1cc(Cl)ccc1Cl (stereo not given) | 42.1 (≈ 109 µM) |
| NS(=O)(=O)c1ccc(NC(=O)CN2C(=O)CCC2=O)cc1 | > 46.7 |
| Cc1cc(Nc2cccc(Cl)c2)nc(-c2ccccc2O)n1 | 0.6 (≈ 1.92 µM) |
| COc1cc(Oc2nc(C(F)(F)F)nc3ccccc23)ccc1C=O | < 0.4 |
| COc1ccc(Br)cc1CN(C)C(=O)C1CC(=O)N(C2CCCC2)C1 (stereo not given) | 54.2 (≈ 132 µM) |
| O=C1C(=O)c2ccccc2C(O)=C1c1cccc([N+](=O)[O-])c1 | > 44.3 |
| Cc1ccc(COC(=O)c2ccc3ccccc3n2)cc1 | 7.6 (≈ 27.4 µM) |
| Cc1ccc(S(=O)(=O)NCc2c(-c3ccccc3)noc2C)cc1 | 40.9 (≈ 119 µM) |
| O=C(Nc1ccc2[nH]ccc2c1)c1ccc(F)cc1 | > 38.1 |
| Cc1cc(C)n(CCCNC(=O)c2ccc(C)o2)n1 | > 39.2 |

From PubChem BioAssay AID1996
